Values belong to the molecule of their own block, whether it stands above or below them.
Assays:
humans = settings: low doses of 0.4 g/m^2/day; cited from earlier work
rat-tumor model = settings: DFMO infusion; cited from earlier work
patients = settings: human, in vivo; cited from earlier work
[1] = cited from earlier work
[2] = test system: ODC1 +263 G promoter/intron 1 luciferase plasmid; experiment: ODC1 promoter/intron 1 luciferase reporter transfection in HCT116 cells; assay type: cell-based, human; settings: 2 μM NSC176327, 24 h, normalized to time-matched DMSO
Description: (§1) HCT116 cells were transfected in 24-well plates. Cells were seeded at 0.1×10^6 cells/well 24 h prior transfection. Each well was transfected with 0.25 μg of each plasmid and 0.025 μg of Renilla-TK plasmid using 2.5 μL Lipofectamine 2000 reagent (Invitrogen) according to the manufacturer's instructions. The Renilla-TK plasmid was purchased from Promega and used as a transfection efficiency control in all promoter-reporter transfection experiments. For the overexpression experiments, ODC1 pGL3-Basic or Enhancer plasmids were co-transfected with the corresponding plasmid: pcDNA 3.0 empty vector, pcDNA3-c-MYC expression vector (Ricci et al., 2004) (Addgene plasmid 16011), full-length pN3-Sp1FL (Sapetschnig et al., 2004) (Addgene plasmid 24543), pN3-empty control (Addgene plasmid 24544), N-terminal mutate pPac-Sp1 (Courey and Tjian, 1988) (Addgene plasmid 12095) and pPac0 empty vector (Courey and Tjian, 1988) (Addgene plasmid 12094). After 5 h of transfection, the medium was replaced with fresh normal medium in the absence of antibiotics. […] Dual luciferase activities were measured using a Turner Designs TD-20/20 luminometer, as described by the manufacturer, and presented as relative luciferase units. Experiments were performed in triplicate, repeated at least twice, and analyzed for statistical significance (P<0.05) using two-sample t-tests (Microsoft Excel). […]

[3] = test system: ODC1 +263 T promoter/intron 1 luciferase plasmid; experiment: as above; assay type: cell-based, human; settings: 2 μM NSC176327, 24 h, normalized to time-matched DMSO
Description: as §1

[4] = test system: HCT116 colorectal cancer cells; experiment: HCT116 24 h IC50 and cell viability; assay type: cell-based, human
[5] = test system: prostoglandin E2 (PGE2) levels in flat mucosa; settings: 300 mg/day, one month; cited from earlier work
COX = settings: cited from earlier work

Structure (SMILES): NCCCC(N)(C(=O)O)C(F)F (racemic) [DFMO, 2-(difluoromethyl)-dl-ornithine]
- toxicity (humans): relatively non-toxic
- decrease in tumor putrescine levels (rat-tumor model): 90%

Structure (SMILES): CC1=C(CC(=O)O)c2cc(F)ccc2/C1=C\c1ccc([S+](C)[O-])cc1 (centres unmarked) [sulindac, (Z)-5-fluoro-2-methyl-1-((4 (methylsulfinyl)phenyl)methylene) 1H-indene-3-acetic acid]
- patients with mild gastrointestinal effects (patients): ~20%
- patients with skin rash and pruritus (patients): 5%
- fraction of the drug absorbed ([1]; oral administration): about 90%
- time to peak plasma levels ([1]; oral, fasting patients): about 2 h

- IC50 [4]: 2000 nM
Structure (SMILES): COc1ccc2c(c1)c1c(C)c3cnccc3c(C)c1n2CCCN [NSC176327]
- reduction of ODC1-luciferase reporter expression [2]: 43.6%
- reduction of ODC1-luciferase reporter expression [3]: 47.5%

Structure (SMILES): CC(C)Cc1ccc(C(C)C(=O)O)cc1 (centres unmarked) [ibuprofen]
- PGE2 levels in flat mucosa [5]: significant decrease

Structure (SMILES): CC1=C(CC(=O)O)c2cc(F)ccc2/C1=C\c1ccc(S(C)(=O)=O)cc1 [Sulindac sulfone]
- COX-inhibitory activity (COX): lacks COX-inhibitory activity
